Patent publication US9822106B2, “Inhibitors of leukotriene A4 hydrolase” (Celtaxsys, Inc., priority 2013, dated 2017)
Read-outs that look alike come from different tables or passages of the source.

Tests used:
colitis = details: eight weeks of treatment; cotton top tamarins; cited from earlier work
[1] = system: ionophore-induced LTB4 production; details: oral administration; rat peritoneum in vivo; cited from earlier work
[2] = system: ionophore-induced LTB4 production; details: oral administration; mouse blood ex vivo; cited from earlier work
LTA4-h [3] = target: T1, LTA4-h (Homo sapiens, UniProt P09960); assay: peptidase (aminopeptidase) assay; assay type: biochemical
T1 sequence (P09960 1-611): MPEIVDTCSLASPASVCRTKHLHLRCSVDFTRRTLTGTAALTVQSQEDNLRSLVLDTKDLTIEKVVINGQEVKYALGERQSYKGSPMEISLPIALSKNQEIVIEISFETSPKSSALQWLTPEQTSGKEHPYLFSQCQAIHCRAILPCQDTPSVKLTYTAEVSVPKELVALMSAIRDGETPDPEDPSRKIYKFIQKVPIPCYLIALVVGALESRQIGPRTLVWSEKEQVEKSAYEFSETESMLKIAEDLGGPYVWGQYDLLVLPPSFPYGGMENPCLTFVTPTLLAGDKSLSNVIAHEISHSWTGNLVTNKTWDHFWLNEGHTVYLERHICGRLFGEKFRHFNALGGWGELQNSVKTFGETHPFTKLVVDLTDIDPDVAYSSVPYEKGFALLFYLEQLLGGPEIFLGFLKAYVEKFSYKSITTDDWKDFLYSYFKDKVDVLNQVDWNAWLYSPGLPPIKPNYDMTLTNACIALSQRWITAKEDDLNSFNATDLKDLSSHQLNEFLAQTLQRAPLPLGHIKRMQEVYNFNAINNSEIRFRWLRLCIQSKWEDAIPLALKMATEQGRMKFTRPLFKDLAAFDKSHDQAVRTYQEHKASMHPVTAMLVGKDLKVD
Description: Since LTA4-h hydrolase is grouped with the M1 family of zinc metalloproteases (see, Rudberg, P. C. et al., J. Biol. Chem. 2002, Vol. 277, page 1398-1404), the compounds of the invention can be tested in the standard hydrolase and peptidase assay to determine the compounds' kinetic constants for binding to LTA4-h hydrolase and for inhibiting LTB4 synthesis (see Askonas, L. J., et al., The Journal of Pharmacology and Experimental Therapeutics 2002, 300(2): 577-582; Penning, T. D., J. Med. Chem. 2000, 43(4): 721-735; Kull, F. et al., The Journal of Biological Chemistry 1999, 274 (49): 34683-34690, the contents of which are expressly incorporated by reference herein).
(§1) The whole blood and aminopeptidase assays were performed as described in Penning et al., J. Med. Chem. 2000, 43, 721-735, and Rudberg et al., J. Biol. Chem. Vol. 279, No. 26, Issue of June 25, pp. 27376-27382, 2004, the contents of each of which are expressly incorporated by reference herein. The hydrolase assay was performed as described in U.S. Pat. No. 7,737,145, the contents of which are expressly incorporated herein.

LTA4-h [4] = target: T1, LTA4-h; assay: hydrolase assay (hydrolase-homogeneous time resolved fluorescence); assay type: biochemical
Description: The compounds of the invention can be tested for their ability to inhibit LTA4-h by various known assays and by assays described herein. For example, the compounds can be tested for their ability to inhibit LTA4-h activity by assaying the compounds in the hydrolase-homogeneous time resolved fluoroescence assay. This assay, which is a two-step assay, measures the hydrolysis of […] to LTB4 by analyzing the amount of LTB4 produced. The first step involves the enzymatic conversion of […] to LTB4 and the second step involves the quantification of the […] with a homogeneous time resolved fluoroescence assay.
as §1, with “Tables 4 to 6 below show the IC50 values for peptidase, hydrolase and whole blood assay (WBA) activity for exemplary compounds encompassed by the invention. The whole” for “The whole”

LTA4-h hydrolase = target: T2, LTA4-h hydrolase (Homo sapiens, UniProt P09960); assay: whole blood assay (WBA); assay type: cell-based
T2 construct: from tissue; host or cells: whole blood
T2 sequence (P09960 1-611): T1 sequence (P09960 1-611)
Description: Compounds of the invention can also be tested for their ability as inhibitors of LTA4-h hydrolase in the whole blood assay using human, mouse, rat or dog whole blood (see Penning, T. D. et al., J. Med. Chem. (2000), 43(4): 721-735 for a description of a human whole blood assay and a mouse whole blood assay, the contents of which are expressly incorporated herein).
as §1, with “Tables 4 to 6 below show the IC50 values for peptidase, hydrolase and whole blood assay (WBA) activity for exemplary compounds encompassed by the invention. The whole” for “The whole”

[5] = prefix 'r' not defined, read-out: IC50 WBA, second value given with prefix 'r'

SMILES	IC50 (LTA4-h [3])	IC50 (LTA4-h [4])	IC50 (LTA4-h hydrolase; read-out: IC50 WBA)	further results
CN(CCCOc1ccc(Cc2ccccc2)cc1)CCC(=O)O.Cl [SC57461]	–	–	–	colitis symptoms (colitis): significantly improved colitis symptoms; inhibition of ionophore-induced LTB4 production [1]: caused inhibition; inhibition of ionophore-induced LTB4 production [2]: caused inhibition
O=C(O)C1CCCN(c2ccc(CNCc3ccc(Oc4ccc(Cl)cc4)cc3)cn2)C1 (stereo not shown) [Compound 22]	3.9 nM	4.8 nM	32 nM	–
O=C(O)C1CCN(c2ccc(CNCc3ccc(Oc4ccc(Cl)cc4)cc3)cn2)CC1 [Compound 2]	68 nM	69 nM	730 nM	IC50 (LTA4-h hydrolase; [5]): 360 nM
CN(Cc1ccc(Oc2ccc(Cl)cc2)cc1)Cc1cccnc1Oc1ccc(C(=O)O)cc1 [Compound 8]	78 nM	50 nM	290 nM	–
O=C(O)C1CCCN(c2ccc(CNCCc3ccc(Oc4nc5ccccc5s4)cc3)cc2)C1 (stereo not shown) [Compound 17]	54 nM	5 nM	–	–
CCOC(=O)c1ccc(Oc2ncccc2CNCc2ccc(Oc3ccc(Cl)cc3)cc2)cc1 [Compound 6]	–	–	–	inhibition at 1 µM (LTA4-h [3]): 18%
CCOC(=O)c1ccc(Oc2ncccc2CN(C)Cc2ccc(Oc3ccc(-c4ncco4)cc3)cc2)cc1 [Compound 11]	–	–	–	inhibition at 1 µM (LTA4-h [3]): 17%
CN(Cc1ccc(C(=O)O)cc1)c1ccc(CNCc2ccc(Oc3ccc(Cl)cc3)cc2)cn1 [Compound 1]	490 nM	280 nM	210 nM	–
CN(Cc1ccc(Oc2ccc(-c3ncco3)cc2)cc1)Cc1cccnc1Oc1ccc(C(=O)O)cc1 [Compound 12]	12 nM	33 nM	360 nM	–
O=C(O)C1CCCN(c2ccc(CNCc3ccc(Oc4ccc(Cl)cc4)cc3)cc2F)C1 (stereo not shown) [Compound 19]	45 nM	–	–	–
CCOC(=O)c1ccc(Oc2ncccc2CNCc2ccc(Oc3ccc(-c4ncco4)cc3)cc2)cc1 [Compound 9]	–	–	–	inhibition at 1 µM (LTA4-h [3]): 45%
Cc1c(C(=O)O)ncn1-c1ccc(CNCc2ccc(Oc3ccc(Cl)cc3)cc2)cn1 [Compound 16]	81 nM	3 nM	880 nM	–
O=C(O)c1cccc(Oc2ncccc2CNCc2ccc(Oc3ccc(-c4ncco4)cc3)cc2)c1 [Compound 13]	75 nM	1400 nM	2300 nM	–
O=C(O)c1ccc(Oc2ncccc2CNCc2ccc(Oc3ccc(Cl)cc3)cc2)cc1 [Compound 3]	21 nM	100 nM	800 nM	IC50 (LTA4-h hydrolase; [5]): 420 nM
COCCN(Cc1ccc(Oc2ccc(Cl)cc2)cc1)Cc1ccc(N2CCCC(C(=O)O)C2)nc1 (stereo not shown) [Compound 23]	85 nM	700 nM	470 nM	–
CN(Cc1ccc(Oc2ccc(Cl)cc2)cc1)Cc1ccc(Oc2ccc(C(=O)O)cc2)nc1 [Compound 4]	300 nM	–	2100 nM	inhibition at 1 µM (LTA4-h [4]; at 1 uM): 47%
O=C(O)C1CCCN(c2ccc(CNCCc3ccc(Oc4ncccn4)cc3)cc2)C1 (stereo not shown) [Compound 18]	16 nM	68 nM	–	–
COCCN(Cc1ccc(Oc2ccc(Cl)cc2)cc1)Cc1ccccc1Oc1cccc(C(=O)O)c1 [Compound 15]	470 nM	–	1950 nM	inhibition at 3 µM (LTA4-h [4]): 18%
O=C(O)c1ccc(Oc2ncccc2CNCc2ccc(Oc3ccc(-c4ncco4)cc3)cc2)cc1 [Compound 10]	39 nM	23 nM	1900 nM	–
COc1cc(C(=O)O)ccc1Oc1ncccc1CNCc1ccc(Oc2ccc(-c3ncco3)cc2)cc1 [Compound 14]	61 nM	350 nM	1500 nM	–
CCOC(=O)c1ccc(Oc2ncccc2CN(C)Cc2ccc(Oc3ccc(Cl)cc3)cc2)cc1 [Compound 7]	–	–	–	inhibition at 1 µM (LTA4-h [3]): 11%
O=C(O)CCNc1ccc(CNCc2ccc(Oc3ccc(Cl)cc3)cc2)cn1 [Compound 21]	2 nM	–	–	–
CN(Cc1ccc(Oc2ccc(Cl)cc2)cc1)Cc1ccc(N2CCC(C(=O)O)CC2)nc1 [Compound 5]	45 nM	43 nM	570 nM	–
CN(CC(=O)O)c1ccc(CNCc2ccc(Oc3ccc(Cl)cc3)cc2)cn1 [Compound 20]	10 nM	–	–	–
CN(Cc1ccc(Oc2ccc(Cl)cc2)cc1)Cc1ccc(N2CCCC(C(=O)O)C2)nc1 (stereo not shown) [Compound 24]	28 nM	150 nM	–	–

More lines, main results first:

IC50 (LTA4-h [3])	IC50 (LTA4-h [4])	IC50 (LTA4-h hydrolase; read-out: IC50 WBA)	SMILES	further results
48 nM	320 nM	510 nM	CN(Cc1ccc(Oc2ccc(Cl)cc2)cc1)Cc1ccc(N2CCCC(C(=O)O)C2)nc1 (stereo not shown) [Compound 27]	–
45 nM	110 nM	–	O=C(O)C1CCCN(c2ccc(CNCc3ccc(OCc4ccc(Cl)cc4)cc3)cn2)C1 (stereo not shown) [Compound 35]	–
16 nM	–	–	O=C(O)[C@@H]1CCCN(c2ccc(CNCc3ccc(Oc4cnc5ccccc5n4)cc3)cn2)C1 [Compound 38]	–
21 nM	–	–	O=C(O)C1CCCN(c2ccc(CNCc3ccc(Oc4ccc(CCO)cc4)cc3)cn2)C1 (stereo not shown) [Compound 40]	–
10 nM	37 nM	–	CC(C)=CCOc1ccc(CNCc2ccc(N3CCCC(C(=O)O)C3)nc2)cc1 (stereo not shown) [Compound 32]	–
850 nM	–	> 3000 nM	O=C(O)c1ccc(CNc2ccc(Oc3ccc(Cl)cc3)cc2)cc1 [Compound 42]	inhibition at 3 µM (LTA4-h [4]): 0%
73 nM	260 nM	1000 nM	C=CCOc1ccc(CNCc2ccc(N3CCCC(C(=O)O)C3)nc2)cc1 (stereo not shown) [Compound 28]	–
33 nM	85 nM	180 nM	CN(Cc1ccc(Oc2ccc(-c3ncco3)cc2)cc1)Cc1ccc(N2CCCC(C(=O)O)C2)nc1 (stereo not shown) [Compound 26]	–
12 nM	–	–	O=C(O)[C@H]1CCCN(c2ccc(CNCc3ccc(Oc4cnc5ccccc5n4)cc3)cn2)C1 [Compound 37]	–
8 nM	8 nM	–	O=C(O)C1CCCN(c2ccc(CNCc3ccc(Oc4ccc5c(c4)OCO5)cc3)cn2)C1 (stereo not shown) [Compound 33]	–
42 nM	9 nM	230 nM	O=C(O)C1CCCN(c2ccc(CNCc3ccc(OC/C=C/c4ccccc4)cc3)cn2)C1 (stereo not shown) [Compound 31]	–
4 nM	–	160 nM	O=C(O)C1CCCN(c2ccc(CNCc3ccc(Oc4nc5ccccc5s4)cc3)cn2)C1 (stereo not shown) [Compound 29]	–
13 nM	3 nM	55 nM	O=C(O)C1CCCN(c2ccc(CNCc3ccc(Oc4ccc(-c5ncco5)cc4)cc3)cn2)C1 (stereo not shown) [Compound 25]	–
7 nM	19 nM	–	O=C(O)C1CCCN(c2ccc(CNCc3ccc(Oc4cnc5ccccc5n4)cc3)cn2)C1 (stereo not shown) [Compound 36]	–
5 nM	1 nM	120 nM	O=C(O)C1CCCN(c2ccc(CNCc3ccc(Oc4nc5ccccc5s4)cc3)cn2)C1 (stereo not shown) [Compound 30]	–
13 nM	86 nM	–	O=C(O)C1CCCN(c2ccc(CNCc3ccc(Oc4ncccn4)cc3)cn2)C1 (stereo not shown) [Compound 34]	–
170 nM	–	–	O=C(O)C1CCCN(c2ccc(CNCc3ccc(Oc4ccc5cc(Cl)ccc5n4)cc3)cn2)C1 (stereo not shown) [Compound 39]	–
